Experimental data as given in PubChem BioAssay (NCI).
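Method: 48-hour compound exposure of cells in 96-well plates, five concentrations, linear interpolation of endpoints. At the TGI there is no net growth.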

Tests used:
Experiment in all cases: growth of human tumour cells (NCI), 48 h
EKVX NSCLC = test system: EKVX NSCLC
CCRF-CEM leukemia = test system: CCRF-CEM leukemia
TK-10 renal = test system: TK-10 renal
NCI-H522 lung = test system: NCI-H522 lung
HT29 colon = test system: HT29 colon
UACC-257 melanoma = test system: UACC-257 melanoma
UACC-62 melanoma = test system: UACC-62 melanoma
HOP-62 NSCLC = test system: HOP-62 NSCLC
SNB-19 CNS = test system: SNB-19 CNS
SW-620 colon = test system: SW-620 colon
SK-OV-3 ovarian = test system: SK-OV-3 ovarian
HOP-92 NSCLC = test system: HOP-92 NSCLC
786-0 renal = test system: 786-0 renal
MCF7 breast = test system: MCF7 breast
ACHN renal = test system: ACHN renal
PC-3 prostate = test system: PC-3 prostate
MDA-MB-435 = test system: MDA-MB-435
DU-145 prostate = test system: DU-145 prostate
HCT-15 colon = test system: HCT-15 colon
NCI/ADR-RES ovarian = test system: NCI/ADR-RES ovarian
COLO 205 colon = test system: COLO 205 colon
OVCAR-3 ovarian = test system: OVCAR-3 ovarian
NCI-H460 lung = test system: NCI-H460 lung
U251 CNS = test system: U251 CNS
SK-MEL-28 melanoma = test system: SK-MEL-28 melanoma
SF-295 CNS = test system: SF-295 CNS
IGROV1 ovarian = test system: IGROV1 ovarian
SN12C renal = test system: SN12C renal
OVCAR-8 ovarian = test system: OVCAR-8 ovarian
RPMI-8226 leukemia = test system: RPMI-8226 leukemia
MDA-N = test system: MDA-N
K-562 leukemia = test system: K-562 leukemia
HCC-2998 colon = test system: HCC-2998 colon
OVCAR-4 ovarian = test system: OVCAR-4 ovarian
KM12 colon = test system: KM12 colon
MOLT-4 leukemia = test system: MOLT-4 leukemia
CAKI-1 renal = test system: CAKI-1 renal
RXF 393 renal = test system: RXF 393 renal
SF-268 CNS = test system: SF-268 CNS
SK-MEL-5 melanoma = test system: SK-MEL-5 melanoma
HS 578T breast = test system: HS 578T breast
T-47D breast = test system: T-47D breast
HCT-116 colon = test system: HCT-116 colon
NCI-H226 lung = test system: NCI-H226 lung
UO-31 renal = test system: UO-31 renal
NCI-H23 lung = test system: NCI-H23 lung
A549 NSCLC = test system: A549 NSCLC
MDA-MB-231 breast = test system: MDA-MB-231 breast
LOX IMVI melanoma = test system: LOX IMVI melanoma
SK-MEL-2 melanoma = test system: SK-MEL-2 melanoma
SF-539 CNS = test system: SF-539 CNS
SNB-75 CNS = test system: SNB-75 CNS
OVCAR-5 ovarian = test system: OVCAR-5 ovarian
MALME-3M melanoma = test system: MALME-3M melanoma
M14 melanoma = test system: M14 melanoma
SR leukemia = test system: SR leukemia
HL-60(TB) leukemia = test system: HL-60(TB) leukemia
BT-549 breast = test system: BT-549 breast
A498 renal = test system: A498 renal

## COC(=O)C1Cc2c([nH]c3ccccc23)-c2[nH]c3ccccc3c2CC(NC(C)=O)C(=O)NCC(=O)N1 (stereo unspecified)
EKVX NSCLC
  TGI: > 100 µM
CCRF-CEM leukemia
  TGI: > 100 µM
TK-10 renal
  TGI: > 100 µM
NCI-H522 lung
  TGI: > 100 µM
HT29 colon
  TGI: > 100 µM
UACC-257 melanoma
  TGI: > 100 µM
UACC-62 melanoma
  TGI: > 100 µM
HOP-62 NSCLC
  TGI: > 100 µM
SNB-19 CNS
  TGI: > 100 µM
SW-620 colon
  TGI: > 100 µM
SK-OV-3 ovarian
  TGI: > 100 µM
HOP-92 NSCLC
  TGI: > 100 µM
786-0 renal
  TGI: > 100 µM
MCF7 breast
  TGI: > 100 µM
ACHN renal
  TGI: > 100 µM
PC-3 prostate
  TGI: > 100 µM
MDA-MB-435
  TGI: > 100 µM
DU-145 prostate
  TGI: > 100 µM
HCT-15 colon
  TGI: > 100 µM
NCI/ADR-RES ovarian
  TGI: > 100 µM
COLO 205 colon
  TGI: > 100 µM
OVCAR-3 ovarian
  TGI: > 100 µM
NCI-H460 lung
  TGI: > 100 µM
U251 CNS
  TGI: > 100 µM
SK-MEL-28 melanoma
  TGI: > 100 µM
SF-295 CNS
  TGI: > 100 µM
IGROV1 ovarian
  TGI: > 100 µM
SN12C renal
  TGI: > 100 µM
OVCAR-8 ovarian
  TGI: > 100 µM
RPMI-8226 leukemia
  TGI: > 100 µM
MDA-N
  TGI: > 100 µM
K-562 leukemia
  TGI: > 100 µM
HCC-2998 colon
  TGI: > 100 µM
OVCAR-4 ovarian
  TGI: > 100 µM
KM12 colon
  TGI: > 100 µM
MOLT-4 leukemia
  TGI: > 100 µM
CAKI-1 renal
  TGI: > 100 µM
RXF 393 renal
  TGI: > 100 µM
SF-268 CNS
  TGI: > 100 µM
SK-MEL-5 melanoma
  TGI: > 100 µM
HS 578T breast
  TGI: > 100 µM
T-47D breast
  TGI: > 100 µM
HCT-116 colon
  TGI: > 100 µM
NCI-H226 lung
  TGI: > 100 µM
UO-31 renal
  TGI: > 100 µM
NCI-H23 lung
  TGI: > 100 µM
A549 NSCLC
  TGI: > 100 µM
MDA-MB-231 breast
  TGI: > 100 µM
LOX IMVI melanoma
  TGI: > 100 µM
SK-MEL-2 melanoma
  TGI: > 100 µM
SF-539 CNS
  TGI: > 100 µM
SNB-75 CNS
  TGI: > 100 µM
OVCAR-5 ovarian
  TGI: > 100 µM

## CCOC(=O)/C(O)=C(\C=N\C(=S)Nc1ccc(Cl)c(Cl)c1)C(=O)OCC
EKVX NSCLC
  TGI: > 100 µM
CCRF-CEM leukemia
  TGI: > 100 µM
TK-10 renal
  TGI: > 100 µM
HT29 colon
  TGI: > 100 µM
UACC-257 melanoma
  TGI: > 100 µM
UACC-62 melanoma
  TGI: > 100 µM
HOP-62 NSCLC
  TGI: > 100 µM
SNB-19 CNS
  TGI: > 100 µM
SW-620 colon
  TGI: > 100 µM
SK-OV-3 ovarian
  TGI: > 100 µM
HOP-92 NSCLC
  TGI: > 100 µM
786-0 renal
  TGI: > 100 µM
MCF7 breast
  TGI: > 100 µM
ACHN renal
  TGI: > 100 µM
PC-3 prostate
  TGI: > 100 µM
MDA-MB-435
  TGI: > 100 µM
DU-145 prostate
  TGI: > 100 µM
HCT-15 colon
  TGI: > 100 µM
NCI/ADR-RES ovarian
  TGI: > 100 µM
COLO 205 colon
  TGI: > 100 µM
OVCAR-3 ovarian
  TGI: > 100 µM
NCI-H460 lung
  TGI: > 100 µM
U251 CNS
  TGI: > 100 µM
SK-MEL-28 melanoma
  TGI: > 100 µM
SF-295 CNS
  TGI: > 100 µM
IGROV1 ovarian
  TGI: > 100 µM
SN12C renal
  TGI: > 100 µM
OVCAR-8 ovarian
  TGI: > 100 µM
RPMI-8226 leukemia
  TGI: > 100 µM
MDA-N
  TGI: > 100 µM
OVCAR-4 ovarian
  TGI: > 100 µM
KM12 colon
  TGI: > 100 µM
MOLT-4 leukemia
  TGI: > 100 µM
CAKI-1 renal
  TGI: > 100 µM
MALME-3M melanoma
  TGI: > 100 µM
RXF 393 renal
  TGI: > 100 µM
SF-268 CNS
  TGI: > 100 µM
SK-MEL-5 melanoma
  TGI: > 100 µM
M14 melanoma
  TGI: > 100 µM
HS 578T breast
  TGI: > 100 µM
HCT-116 colon
  TGI: > 100 µM
NCI-H226 lung
  TGI: > 100 µM
UO-31 renal
  TGI: > 100 µM
NCI-H23 lung
  TGI: > 100 µM
SR leukemia
  TGI: > 100 µM
A549 NSCLC
  TGI: > 100 µM
MDA-MB-231 breast
  TGI: > 100 µM
LOX IMVI melanoma
  TGI: > 100 µM
SK-MEL-2 melanoma
  TGI: > 100 µM
SF-539 CNS
  TGI: > 100 µM
SNB-75 CNS
  TGI: > 100 µM
HL-60(TB) leukemia
  TGI: 59.7 µM
OVCAR-5 ovarian
  TGI: > 100 µM

## CC(C)(C)c1cc(C2COC(=O)COCCOCC(=O)OCCOCCO2)cc(C(C)(C)C)c1O (stereo unspecified)
EKVX NSCLC
  TGI: > 100 µM
CCRF-CEM leukemia
  TGI: > 100 µM
TK-10 renal
  TGI: 32.4 µM
NCI-H522 lung
  TGI: > 94 µM
HT29 colon
  TGI: > 100 µM
UACC-257 melanoma
  TGI: > 100 µM
UACC-62 melanoma
  TGI: > 100 µM
HOP-62 NSCLC
  TGI: > 92.9 µM
SNB-19 CNS
  TGI: > 100 µM
SW-620 colon
  TGI: > 100 µM
SK-OV-3 ovarian
  TGI: > 78.4 µM
HOP-92 NSCLC
  TGI: 59.4 µM
786-0 renal
  TGI: 32.5 µM
MCF7 breast
  TGI: > 100 µM
ACHN renal
  TGI: 37.2 µM
BT-549 breast
  TGI: > 77.7 µM
PC-3 prostate
  TGI: 63.3 µM
MDA-MB-435
  TGI: > 100 µM
DU-145 prostate
  TGI: 37.1 µM
HCT-15 colon
  TGI: > 100 µM
NCI/ADR-RES ovarian
  TGI: > 100 µM
COLO 205 colon
  TGI: > 100 µM
OVCAR-3 ovarian
  TGI: > 100 µM
NCI-H460 lung
  TGI: > 100 µM
U251 CNS
  TGI: > 100 µM
SK-MEL-28 melanoma
  TGI: > 100 µM
SF-295 CNS
  TGI: 53.7 µM
IGROV1 ovarian
  TGI: > 100 µM
SN12C renal
  TGI: 44.6 µM
OVCAR-8 ovarian
  TGI: > 100 µM
RPMI-8226 leukemia
  TGI: > 100 µM
K-562 leukemia
  TGI: > 100 µM
HCC-2998 colon
  TGI: 43 µM
OVCAR-4 ovarian
  TGI: > 100 µM
KM12 colon
  TGI: > 100 µM
MOLT-4 leukemia
  TGI: > 100 µM
CAKI-1 renal
  TGI: 33.4 µM
MALME-3M melanoma
  TGI: > 100 µM
RXF 393 renal
  TGI: 47 µM
SF-268 CNS
  TGI: > 90.7 µM
SK-MEL-5 melanoma
  TGI: > 100 µM
M14 melanoma
  TGI: > 100 µM
HS 578T breast
  TGI: 77.7 µM
T-47D breast
  TGI: > 31.6 µM
HCT-116 colon
  TGI: > 100 µM
NCI-H226 lung
  TGI: > 100 µM
UO-31 renal
  TGI: 30.5 µM
NCI-H23 lung
  TGI: 99.1 µM
SR leukemia
  TGI: 64.2 µM
A549 NSCLC
  TGI: > 100 µM
MDA-MB-231 breast
  TGI: > 100 µM
LOX IMVI melanoma
  TGI: > 31.6 µM
SK-MEL-2 melanoma
  TGI: > 100 µM
SF-539 CNS
  TGI: > 100 µM
SNB-75 CNS
  TGI: 49.6 µM
HL-60(TB) leukemia
  TGI: > 100 µM
A498 renal
  TGI: > 100 µM
OVCAR-5 ovarian
  TGI: 54.8 µM

## CCCCCOP(=O)(OCCCCC)C(NC(C)=O)(C(=O)OCC)C(F)(F)F (stereo unspecified)
EKVX NSCLC
  TGI: > 100 µM
CCRF-CEM leukemia
  TGI: > 100 µM
NCI-H522 lung
  TGI: > 100 µM
HT29 colon
  TGI: > 100 µM
UACC-62 melanoma
  TGI: > 100 µM
HOP-62 NSCLC
  TGI: > 100 µM
SK-OV-3 ovarian
  TGI: > 100 µM
MCF7 breast
  TGI: > 100 µM
ACHN renal
  TGI: > 100 µM
MDA-MB-435
  TGI: > 100 µM
DU-145 prostate
  TGI: > 100 µM
HCT-15 colon
  TGI: > 100 µM
U251 CNS
  TGI: > 100 µM
SK-MEL-28 melanoma
  TGI: > 100 µM
SN12C renal
  TGI: > 100 µM
RPMI-8226 leukemia
  TGI: > 100 µM
MDA-N
  TGI: > 100 µM
K-562 leukemia
  TGI: > 100 µM
HCC-2998 colon
  TGI: > 100 µM
MOLT-4 leukemia
  TGI: > 100 µM
MALME-3M melanoma
  TGI: > 100 µM
SF-268 CNS
  TGI: > 100 µM
M14 melanoma
  TGI: > 100 µM
T-47D breast
  TGI: > 100 µM
HCT-116 colon
  TGI: > 100 µM
UO-31 renal
  TGI: > 100 µM
SR leukemia
  TGI: > 100 µM
MDA-MB-231 breast
  TGI: > 100 µM
SF-539 CNS
  TGI: > 100 µM
SNB-75 CNS
  TGI: > 100 µM
HL-60(TB) leukemia
  TGI: > 100 µM
A498 renal
  TGI: > 100 µM
